Values of other authors in US9873913B2, “Mutation testing” (Roche Molecular Systems, Inc., priority 2013, dated 2018).

System: non-small cell lung cancer (NSCLC) patients
Conditions: relatively small subset of NSCLC patients after chemotherapy

Row | Structure (SMILES) | effect on survival (in words)
1 | C#Cc1cccc(Nc2ncnc3cc(OCCOC)c(OCCOC)cc23)c1 [erlotinib] | prolong survival
2 | COc1cc2ncnc(Nc3ccc(F)c(Cl)c3)c2cc1OCCCN1CCOCC1 [gefitinib] | prolong survival
